Results reported in patent US8324151B2, “Treatment of sepsis and septic shock using ghrelin and growth hormone” (The Feinstein Institute for Medical Research, priority 2007, dated 2012).
Ends that are not written are not given here. * marks the point of attachment. Octanoyl = CCCCCCCC(=O)*

Experiments:
[1] = tested on: 24-month-old (aged) rats with LPS injection; test: LPS-induced endotoxemia in aged rats treated with GH with or without ghrelin; format: in vivo, rat; conditions: 4 h after LPS 15 mg/kg BW, ghrelin 20 nmol/kg BW and/or GH 25 μg/kg BW bolus 30 min prior to LPS
Experimental: To determine whether GH sensitizes Ghrelin's anti-inflammatory effects, GH was administered (25 μg/kg BW, a bolus at 30 min prior to LPS injection) with or without ghrelin (20 nmol/kg BW, a bolus at 30 min prior to LPS injection) in 24-month-old (aged) rats with LPS injection (15 mg/kg BW). […] Similarly, organ injury indicators such as AST and ALT were attenuated only following co-administration of ghrelin and GH after LPS injection in aged animals (FIG. 9C-D).

[2] = tested on: brain ghrelin receptor; test: Effect of GH on central ghrelin receptor expression and parasympathetic neuronal activity; format: in vivo; conditions: no data given
[3] = tested on: rats exposed to whole body irradiation followed by CLP; test: Radiation combined injury (RCI): 5-Gy whole body irradiation followed by CLP; format: in vivo, rat
Experimental: Rats were exposed to 5-Gy whole body irradiation followed by cecal ligation and puncture (CLP) 48 h thereafter. Human ghrelin (30 nmol) or vehicle (saline) was infused for 68 h after radiation exposure. At 20 h post-CLP, circulating tissue injury markers were measured. A 10-day survival study was also performed.

[4] = tested on: male 3-month-old (young) rats subjected to sepsis by CLP; format: in vivo
Experimental: Protective effects of ghrelin in young septic animals: This study was designed to determine whether ghrelin by itself can attenuate sepsis-induced inflammatory responses, cardiovascular responses, tissue injury, and mortality in young animals. To study this, male 3-month-old (young) rats were subjected to sepsis by CLP. At 5 h after CLP, a bolus IV injection of ghrelin (6 nmol/kg BW) was followed by a continuous infusion of ghrelin (40 nmol/kg BW) via a primed 200-μl Alzet mini-pump for 15 h. 20 h after CLP (i.e., severe sepsis), plasma levels of TNF-α, IL-6, and HMGB-1 were determined. Cardiac output (CO), stoke volume (SV), total peripheral resistance (TPR), and organ blood flow (BF) were measured using radioactive microspheres. Moreover, tissue injury indicators such as plasma levels of lactate and creatinine, as well as lung water content (edema) were determined. In additional groups of animals, the necrotic cecum was excised at 20 h after CLP, and a 10-day survival was recorded. […] Thus, ghrelin may provide a novel approach for anti-sepsis therapy in the young population. […] This also confirms that ghrelin can cross the blood-brain barrier to produce its beneficial effect centrally, thus reducing proinflammatory cytokines in sepsis. […] Plasma levels of TNF-α were measured at 1 h after LPS injection. […] However, due to the presence of central ghrelin hyporesponsiveness in aged animals, it is most likely that treatment with ghrelin alone will not produce desirable beneficial results in the geriatric population.

[5] = tested on: male 3-month-old (young) rats subjected to sepsis by CLP; conditions: sepsis in young animals; Wu et al., 2004; cited from earlier work
[6] = tested on: young rats with LPS injection; test: ICV administration of ghrelin prior to IV LPS injection (endotoxemia); conditions: ghrelin 3 nmol/kg BW ICV 30 min prior to IV LPS 15 mg/kg BW; 1 h after LPS
[7] = 20 h after CLP, ghrelin 6 nmol/kg BW IV bolus at 5 h + 40 nmol/kg BW infusion for 15 h
[8] = 20 h after CLP, radioactive microspheres
[9] = plasma, 20 h post-CLP, human ghrelin 30 nmol infused for 68 h after radiation, Mean ± SE, n = 4-6/group

Substance: GH: Growth hormone; a ghrelin-sensitizing agent; preferred human forms SEQ ID NO:2-4
- plasma levels of IL-6 [1]: neither ghrelin nor GH alone significantly decreased
- plasma levels of TNF-α [1]: neither ghrelin nor GH alone significantly decreased
- brain ghrelin receptor expression ([2]; aged animals (heading of b67)): increases
- parasympathetic neuronal activity [2]: increases

Substance: Human ghrelin: Human ghrelin; preferably GSSFLSPEHQRVQQRKESKKPPAKLQPR, S at position 3 n-octanoylated serine (SEQ ID NO:1) (GSS(Octanoyl)FLSPEHQRVQQRKESKKPPAKLQPR; listed as Homo sapiens)
- survival ([3]; 10-day survival after RCI, vehicle 38%): 69%
- decrease of the elevated injury markers in plasma ([3]; vs. RCI + vehicle, 20 h post-CLP): 41-59%

Substance: ghrelin: Endogenous ligand for the growth hormone secretagogue receptor; species form used in the LPS and CLP studies not stated (GSSFLSPEHQRVQQRKESKKPPAKLQPR; ends and bridges not checked; UniProt Q9UBU3 24-51, looked up)
- plasma levels of IL-6 [1]: neither ghrelin nor GH alone significantly decreased
- plasma levels of TNF-α [1]: neither ghrelin nor GH alone significantly decreased
- survival of septic animals ([4]; 10-day survival, necrotic cecum excised at 20 h after CLP, control 35%, n=20/group): 65%
- lung edema (lung water content) ([4]; 20 h after CLP): decreased
- plasma creatinine ([4]; 20 h after CLP): decreased
- plasma lactate ([4]; 20 h after CLP): decreased
- cytokine levels in peritoneal fluid ([4]; 20 h after CLP, data not shown): markedly reduced
- plasma levels of HMGB-1 [4, 7]: significantly reduced
- plasma levels of IL-6 [4, 7]: significantly reduced
- plasma levels of TNF-α [4, 7]: significantly reduced
- cardiac output (CO) [4, 8]: increased
- organ blood flow in the gut [4, 8]: increased
- organ blood flow in the kidneys [4, 8]: increased
- organ blood flow in the liver [4, 8]: increased
- stroke volume (SV) [4, 8]: increased
- total peripheral resistance (TPR) [4, 8]: reduced
- brain ghrelin levels ([4]; rat, in vivo, iv): restored the reduced brain ghrelin levels
- Gut MPO ([3]; 20 h post-CLP, human ghrelin 30 nmol infused for 68 h after radiation, Mean ± SE, n = 4-6/group): 14.0 ± 1.1 μU/mg
- ALT [3, 9]: 42.3 ± 5.4 IU/L
- AST [3, 9]: 70.7 ± 70.3 IU/L
- Creatinine [3, 9]: 1.60 ± 0.20 mg/dL
- IL-6 [3, 9]: 817 ± 88 pg/mL
- LDH [3, 9]: 1098 ± 88 U/L
- Lactate [3, 9]: 19.4 ± 0.8 mg/dL
- TNF-α [3, 9]: 41.8 ± 8.5 pg/mL
- circulating proinflammatory cytokines such as TNF-α and IL-6 [5]: significantly decreases
- reduction of serum levels of TNF-α [6]: 65%
